In US9861593B2, “Method for treating or preventing dry eye disorders using alkylamino-polyhydroxyalkanes” (Dynamis Pharmaceuticals, Inc., priority 2008, dated 2018):

Tested on: goblet cells
Experiment: Goblet cell density in eye tissue of scopolamine-treated rats (dry eye model), PAS-stained thin sections, blinded grader ratings
Assay type: in vivo, Sprague-Dawley male rats
Description: Sprague-Dawley male rats (7 weeks old, average weight=444 g) were treated with subcutaneous (SC) scopolamine hydrobromide in normal saline (n=30, 25 mg/kg injected 3× per day) or nothing (n=4). Scopolamine treated animals received either (a) 50 mM meglumine in the drinking water (n=10), (b) a 3× daily eyemist containing 2% by weight of meglumine hydrochloride (n=10) or (c) a 3× daily eyemist of normal saline (n=10). Treatment was for 4.5 weeks. One animal receiving scopolamine and the meglumine eyemist died just prior to the end of the study, and the eye tissues were not analyzed. Animals were euthanized and the eye orbit and surrounding tissue from both eyes were removed and placed in formalin. Tissues were embedded in paraffin, thin sections prepared, and stained with periodic acid Schiff to more easily visualize the goblet cells.
Animals not treated with scopolamine or with scopolamine and a saline eyemist had the lowest levels of goblet cells. […] The difference in goblet cell density between the untreated animals and those treated with oral meglumine was significant for one grader (p=0.04) and approached significance for the other (p=0.07). The meglumine eye mist referred to in Table 1 was obtained from Piedmont Chemical Industries (High Point, N.C.).

CNC[C@H](O)[C@@H](O)[C@H](O)[C@H](O)CO [oral meg, meglumine]
extent of regions containing goblet cells (FIG. 1) (scopolamine-dosed rats, oral meglumine versus saline eyemist): more extensive regions containing goblet cells
levels of goblet cells compared with the other groups (in words) (scopolamine-treated rats, 50 mM meglumine in the drinking water, 4.5 weeks): highest levels of goblet cells
